# Reference: patent US8420119B2, “Drug composition for treating tumor with polymeric micelle encapsulating anti-neoplastic” (Industrial Technology Research Institute, priority 2009, dated 2013)
# Assays:
# [1] = system: Human colon cancer Colo205 cells; assay: In vivo pharmaceutical efficiency comparison of SCP201 with free CPT11, Colo205 tumor; design: species or system immunodeficiency mice
# Method: (§1) Human colon cancer HT29 cells were implanted subcutaneously at the dorsal muscles of immunodeficiency mice. […] The administration frequency was twice a week and five times in total. The tumor size and weight of each mouse was monitored. The tumor size was measured and calculated according to the formula V=1/2 ab^2, wherein V is the volume of tumor, a is the longest diameter of the tumor, and b is the shortest diameter of the tumor. Human colon cancer Colo205 cells were also tested by the same method described above, except that the mice were divided into 6 groups.
# [2] = system: SCC-25; assay: MTT assay SCC-25; format: cell-based, human; conditions: Tongue, SCC-25, 72 hours
# Method: (§2) Various human cancer lines, such as A549, AS2, and H460, were implanted onto multi-well plates and Dulbecco's Modified Eagle Media (high glucose) with 10% of fetal bovine serum and 1% of P/S being added to each well. […] Then a 20 μL of 0.5 mg/ml MTT (3-(4,5-dimethylthiazol-2-yl)-2,5-diphenyltetrazolium bromide) solution was added to each well to start the reaction. After 2 hours, the suspension of each well was removed and DMSO was added into the well to dissolve formazan, which was formed during the reaction. The living cell concentration was then obtained by analyzing the OD570 and OD600 data of each well.
# [3] = system: Human colon cancer HT29 cells; assay: In vivo pharmaceutical efficiency comparison of SCP201 with free CPT11, HT29 tumor; design: species or system immunodeficiency mice
# Method: as §1
# [4] = system: A549; assay: MTT assay A549; format: cell-based, human; conditions: Lung, A549, 72 hours
# Method: as §2
# [5] = system: OVCAR-3; assay: MTT assay OVCAR-3; format: cell-based, human; conditions: Ovarian, OVCAR-3, 72 hours
# Method: as §2
# [6] = system: RPMI2650; assay: MTT assay RPMI2650; format: cell-based, human; conditions: Nasalseptum, RPMI2650, 72 hours
# Method: as §2
# [7] = system: H460; assay: MTT assay H460; format: cell-based, human; conditions: Lung, H460, 72 hours
# Method: as §2
# [8] = system: AS2; assay: MTT assay AS2; format: cell-based, human; conditions: Lung, AS2, 72 hours
# Method: as §2
# [9] = system: Human colon cancer HT29 cells; assay: In vivo pharmaceutical efficiency comparison of CCP201 with free CPT11, HT29 tumor; design: species or system immunodeficiency mice
# Method: Human colon cancer HT29 cells were implanted subcutaneously at the dorsal muscles of immunodeficiency mice. […] The administration frequency was twice a week and five times in total. The tumor size and weight of each mouse was monitored. The tumor size was measured and calculated according to the formula V=½ ab^2, wherein V is the volume of the tumor, a is the longest diameter of the tumor, and b is the shortest diameter of the tumor.
# [10] = system: HT29; assay: MTT assay HT29; format: cell-based, human; conditions: Colorectal, HT29, 72 hours
# Method: as §2
# [11] = system: Colo 205; assay: MTT assay Colo 205; format: cell-based, human; conditions: Colorectal, Colo 205, 72 hours
# Method: as §2
# [12] = dose 10 mg/kg, total dose 50 mg/kg
# [13] = dose 40 mg/kg, total dose 200 mg/kg
compound,measurement,setting,value
"CCc1c2c(nc3ccc(OC(=O)N4CCC(N5CCCCC5)CC4)cc13)-c1cc3c(c(=O)n1C2)COC(=O)[C@]3(O)CC [CPT11, 7-ethyl-10-[4-(1-piperidino)-1-piperidono]carbonyloxy camptothecin]",Tumor Size (mm^3) Vol.,"[1]; day 0, 40 mg/kg",152.1 mm^3
same,Tumor Size (mm^3) Vol.,"[1]; day 1, 10 mg/kg",175.1 mm^3
same,Tumor Size (mm^3) Vol.,"[1]; day 1, 40 mg/kg",184.6 mm^3
same,Tumor Size (mm^3) Vol.,"[1]; day 3, 10 mg/kg",192.0 mm^3
same,Tumor Size (mm^3) Vol.,"[1]; day 3, 40 mg/kg",239.3 mm^3
same,Tumor Size (mm^3) Vol.,"[1]; day 6, 10 mg/kg",215.0 mm^3
same,Tumor Size (mm^3) Vol.,"[1]; day 6, 40 mg/kg",215.0 mm^3
same,Tumor Size (mm^3) Vol.,"[1]; day 8, 10 mg/kg",251.2 mm^3
same,Tumor Size (mm^3) Vol.,"[1]; day 8, 40 mg/kg",184.7 mm^3
same,Tumor Size (mm^3) Vol.,"[1]; day 10, 10 mg/kg",262.1 mm^3
same,Tumor Size (mm^3) Vol.,"[1]; day 10, 40 mg/kg",161.7 mm^3
same,Tumor Size (mm^3) Vol.,"[1]; day 13, 10 mg/kg",263.5 mm^3
same,Tumor Size (mm^3) Vol.,"[1]; day 13, 40 mg/kg",110.2 mm^3
same,Tumor Size (mm^3) Vol.,"[1]; day 15, 10 mg/kg",274.1 mm^3
same,Tumor Size (mm^3) Vol.,"[1]; day 15, 40 mg/kg",70.9 mm^3
same,Tumor Size (mm^3) Vol.,"[1]; day 17, 10 mg/kg",293.7 mm^3
same,Tumor Size (mm^3) Vol.,"[1]; day 17, 40 mg/kg",59.1 mm^3
same,Tumor Size (mm^3) Vol.,"[1]; day 20, 10 mg/kg",301.4 mm^3
same,Tumor Size (mm^3) Vol.,"[1]; day 20, 40 mg/kg",37.8 mm^3
same,Maximum weight loss %,[1]; [12],4.2%
same,Maximum weight loss (day),[1]; [12],(18) day
same,TIR % (day 20),[1]; [12],61%
same,Maximum weight loss %,[1]; [13],3.7%
same,Maximum weight loss (day),[1]; [13],(8) day
same,TIR % (day 20),[1]; [13],95%
same,IC50,[2],12350 ± 1160 µg/mL
same,Tumor Size (mm^3) Vol.,"[3]; day 0, 10 mg/kg",142.8 mm^3
same,Tumor Size (mm^3) Vol.,"[3]; day 3, 10 mg/kg",227.8 mm^3
same,Tumor Size (mm^3) Vol.,"[3]; day 6, 10 mg/kg",292.7 mm^3
same,Tumor Size (mm^3) Vol.,"[3]; day 9, 10 mg/kg",384.2 mm^3
same,Tumor Size (mm^3) Vol.,"[3]; day 12, 10 mg/kg",492.0 mm^3
same,Tumor Size (mm^3) Vol.,"[3]; day 15, 10 mg/kg",666.0 mm^3
same,Tumor Size (mm^3) Vol.,"[3]; day 18, 10 mg/kg",853.5 mm^3
same,Tumor Size (mm^3) Vol.,"[3]; day 21, 10 mg/kg",997.7 mm^3
same,Tumor Size (mm^3) Vol.,"[3]; day 24, 10 mg/kg",1308.5 mm^3
same,Tumor Size (mm^3) Vol.,"[3]; day 27, 10 mg/kg",1732.2 mm^3
same,Maximum weight loss,[3]; [12],27 days
same,Maximum weight loss %,[3]; [12],9.4%
same,TIR % (day 21),[3]; [12],23%
same,IC50,[4],13340 ± 1330 µg/mL
same,IC50,[5],16750 ± 1430 µg/mL
same,IC50,[6],1470 ± 260 µg/mL
same,IC50,[7],1890 ± 140 µg/mL
same,IC50,[8],4200 ± 480 µg/mL
same,Tumor Size (mm^3) Vol.,"[9]; day 0, 10 mg/kg",469.6 mm^3
same,Tumor Size (mm^3) Vol.,"[9]; day 4, 10 mg/kg",745.8 mm^3
same,Tumor Size (mm^3) Vol.,"[9]; day 8, 10 mg/kg",723.4 mm^3
same,Tumor Size (mm^3) Vol.,"[9]; day 11, 10 mg/kg",740.8 mm^3
same,Tumor Size (mm^3) Vol.,"[9]; day 13, 10 mg/kg",786.0 mm^3
same,Tumor Size (mm^3) Vol.,"[9]; day 15, 10 mg/kg",757.5 mm^3
same,Tumor Size (mm^3) Vol.,"[9]; day 18, 10 mg/kg",879.8 mm^3
same,Tumor Size (mm^3) Vol.,"[9]; day 20, 10 mg/kg",902.7 mm^3
same,Tumor Size (mm^3) Vol.,"[9]; day 22, 10 mg/kg",927.3 mm^3
same,Tumor Size (mm^3) Vol.,"[9]; day 27, 10 mg/kg",1217.6 mm^3
same,Maximum weight loss,[9]; [12],27 days
same,Maximum weight loss %,[9]; [12],17.3%
same,TIR % (day 21),[9]; [12],35%
same,IC50,[10],1900 µg/mL
same,IC50,[11],6840 ± 990 µg/mL
